Each structure is given as a SMILES string.

In the assay the target is human, KCNT1 (Homo sapiens (Human), UniProt Q5JUK3). The experiment in a line: FLIPR Tl/K Flux Assay. The assay is classed as cell-based. Conditions: HEK293 cells stably expressing human KCNT1; Tl+ flux stimulated with EC80 of agonist Loxapine. Put shortly: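 HEK293 cells stably expressing human KCNT1 were loaded with FLIPR potassium dye in HEPES/HBSS pH 7.4 with 5 mM probenecid, 1 h at 25 °C, then given test compound for 30 min at 25 °C. Tl+ flux was triggered with chloride-free buffer containing Tl+ and EC80 loxapine and read 160 s. IC50 came from Hill fits of % inhibition.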
Sequence of human, KCNT1 (Q5JUK3 whole entry): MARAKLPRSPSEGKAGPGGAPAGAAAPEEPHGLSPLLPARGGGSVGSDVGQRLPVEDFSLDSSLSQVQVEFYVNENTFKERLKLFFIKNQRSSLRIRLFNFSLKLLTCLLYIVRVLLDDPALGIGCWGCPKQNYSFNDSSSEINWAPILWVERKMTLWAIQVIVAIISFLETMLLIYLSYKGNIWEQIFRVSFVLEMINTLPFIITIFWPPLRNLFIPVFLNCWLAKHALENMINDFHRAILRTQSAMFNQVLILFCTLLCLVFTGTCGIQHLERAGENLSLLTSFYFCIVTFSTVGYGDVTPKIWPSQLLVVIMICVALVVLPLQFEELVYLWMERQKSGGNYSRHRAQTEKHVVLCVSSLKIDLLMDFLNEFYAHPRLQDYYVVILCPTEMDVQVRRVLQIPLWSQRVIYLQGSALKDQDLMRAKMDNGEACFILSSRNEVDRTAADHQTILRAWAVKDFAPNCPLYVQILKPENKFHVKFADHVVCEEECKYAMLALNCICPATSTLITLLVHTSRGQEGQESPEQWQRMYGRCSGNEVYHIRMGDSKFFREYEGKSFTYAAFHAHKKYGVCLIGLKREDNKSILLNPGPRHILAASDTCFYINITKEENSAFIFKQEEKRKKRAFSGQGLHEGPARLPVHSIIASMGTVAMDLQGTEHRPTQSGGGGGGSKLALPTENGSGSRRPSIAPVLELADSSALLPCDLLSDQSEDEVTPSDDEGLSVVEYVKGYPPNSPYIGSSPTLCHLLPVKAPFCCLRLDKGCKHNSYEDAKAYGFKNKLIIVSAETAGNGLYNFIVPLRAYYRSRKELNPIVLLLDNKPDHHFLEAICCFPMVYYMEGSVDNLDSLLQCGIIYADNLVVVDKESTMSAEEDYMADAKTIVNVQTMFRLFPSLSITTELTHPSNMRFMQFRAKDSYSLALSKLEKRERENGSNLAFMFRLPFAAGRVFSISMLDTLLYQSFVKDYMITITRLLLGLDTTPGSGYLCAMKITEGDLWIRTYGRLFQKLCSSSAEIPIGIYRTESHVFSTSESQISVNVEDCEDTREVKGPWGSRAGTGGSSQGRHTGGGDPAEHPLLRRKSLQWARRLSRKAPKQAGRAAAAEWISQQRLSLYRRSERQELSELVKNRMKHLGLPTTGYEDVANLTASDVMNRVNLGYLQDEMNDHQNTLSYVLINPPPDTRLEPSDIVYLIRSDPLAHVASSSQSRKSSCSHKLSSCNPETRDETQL
For orientation: IC50 means the concentration needed to halve the response being measured. A higher IC50 goes with weaker potency. Consider `O=C(NC1CCCc2nn(-c3ccnc(C(F)(F)F)c3)cc21)c1ccnc(C(F)(F)F)c1` (racemic) [Compound I-20, (rac)-2-(Trifluoromethyl)-N-(2-(2-(trifluoromethyl)pyridin-4-yl)-4,5,6,7-tetrahydro-2H-indazol-4-yl)isonicotinamide], for which the IC50 is < 250 nM. To `Cc1cccc(C(=O)NC2CCCc3nn(-c4ccnc(C(F)(F)F)c4)cc32)c1` (racemic) [Compound I-17, (rac)-3-Methyl-N-(2-(2-(trifluoromethyl)pyridin-4-yl)-4,5,6,7-tetrahydro-2H-indazol-4-yl)benzamide] belongs < 250 nM.

Take `Cn1nc(C(F)(F)F)cc1C(=O)N[C@H]1CCCc2oc(-c3ccnc(C(F)(F)F)c3)nc21` [Compound I-84a]: the IC50 is < 250 nM. Turning to `Cn1nc(C(F)(F)F)nc1C(=O)N[C@H]1CCCn2nc(-c3cc(C(F)(F)F)ncc3F)cc21` [Compound I-203a, (S)-N-(2-(5-Fluoro-2-(trifluoromethyl)pyridin-4-yl)-4,5,6,7-tetrahydropyrazolo[1,5-a]pyridin-4-yl)-1-methyl-3-(trifluoromethyl)-1H-1,2,4-triazole-5-carboxamide], the IC50 was < 250 nM. The same measure for `CCOc1cc(-n2cc3c(n2)CC[C@@H]3NC(=O)c2cc(F)cc(F)c2)ccn1` [Compound I-337a, (S)-N-(2-(2-Ethoxypyridin-4-yl)-2,4,5,6-tetrahydrocyclopenta[c]pyrazol-4-yl)-3,5-difluorobenzamide]: < 250 nM; for `O=C(N[C@@H]1CCCc2nc(-c3ccnc(C4CC4)c3)oc21)c1cncc(C(F)(F)F)n1` [Compound I-509b]: > 1000 nM; for `Cc1cc(C#N)cc(C(=O)N[C@@H]2CCn3nc(-c4cc(C(F)(F)F)ncc4F)cc32)c1` [Compound I-486b]: 250 to 500 nM.

Regarding `O=C(N[C@H]1CCCn2nc(-c3ccnc(C(F)(F)F)c3)cc21)c1cn(C(F)(F)F)nc1C(F)F` [Compound I-497a, (S)-3-(Difluoromethyl)-1-(trifluoromethyl)-N-(2-(2-(trifluoromethyl)pyridin-4-yl)-4,5,6,7-tetrahydropyrazolo[1,5-a]pyridin-4-yl)-1H-pyrazole-4-carboxamide], the IC50 is < 250 nM.

With `N#Cc1cccc(C(=O)NC2CCCCC3OC(c4ccnc(C(F)(F)F)c4)=NC23)c1` (centres unmarked) [Compound I-477], the IC50 is < 250 nM. To `O=C(N[C@H]1CCCn2nc(-c3ccnc(C(F)(F)F)c3)cc21)C12CC(C(F)(F)F)(C1)C2` [Compound I-501a, (S)-3-(Trifluoromethyl)-N-(2-(2-(trifluoromethyl)pyridin-4-yl)-4,5,6,7-tetrahydropyrazolo[1,5-a]pyridin-4-yl)bicyclo[1.1.1]pentane-1-carboxamide] belongs < 250 nM; to `CC(C)c1nc(C(=O)N[C@H]2CCCn3nc(-c4ccnc(C(F)(F)F)c4)cc32)co1` [Compound I-441a], < 250 nM. As for `N#Cc1ccc(C(=O)N[C@H]2CCCn3nc(-c4ccnc(C(F)(F)F)c4)cc32)cc1` [Compound I-349a], the IC50 was < 250 nM. The same measure for `O=C(N[C@H]1CCc2cnc(-c3ccnc(C(F)(F)F)c3)cc21)c1cncc(C(F)(F)F)n1` [Compound I-197a, (S)-6-(trifluoromethyl)-N-(3-(2-(trifluoromethyl)pyridin-4-yl)-6,7-dihydro-5H-cyclopenta[c]pyridin-5-yl)pyrazine-2-carboxamide]: > 1000 nM. Regarding `O=C(N[C@H]1CCn2nc(-c3cc(C(F)(F)F)ncc3F)cc21)C12CC(F)(C1)C2` [Compound I-552a, (S)-3-Fluoro-N-(2-(5-fluoro-2-(trifluoromethyl)pyridin-4-yl)-5,6-dihydro-4H-pyrrolo[1,2-b]pyrazol-4-yl)bicyclo[1.1.1]pentane-1-carboxamide], the IC50 was < 250 nM.

Consider `O=C(N[C@H]1CCCn2nc(-c3cc(C4CC4)ncc3F)cc21)c1ccnc(OC(F)(F)F)c1` [Compound I-498a, (S)-N-(2-(2-Cyclopropyl-5-fluoropyridin-4-yl)-4,5,6,7-tetrahydropyrazolo[1,5-a]pyridin-4-yl)-2-(trifluoromethoxy)isonicotinamide], for which the IC50 is < 250 nM.

With `Cn1nc2ccccc2c1C(=O)NC1CCCc2nn(-c3ccnc(C(F)(F)F)c3)cc21` (racemic) [Compound I-26, (rac)-2-Methyl-N-(2-(2-(trifluoromethyl)pyridin-4-yl)-4,5,6,7-tetrahydro-2H-indazol-4-yl)-2H-indazole-3-carboxamide], the concentration for half-maximal inhibition (IC50) fell in the range of 250 to 500 nM. To `CCc1cc(F)cc(C(=O)N[C@H]2CCc3nn(-c4ccnc(C(F)(F)F)c4)cc32)c1` [Compound I-127a, (S)-3-Ethyl-5-fluoro-N-(2-(2-(trifluoromethyl)pyridin-4-yl)-2,4,5,6-tetrahydrocyclopenta[c]pyrazol-4-yl)benzamide] belongs < 250 nM; to `CC(C)c1cc(-c2cc3n(n2)CCC[C@@H]3NC(=O)c2cc(C(F)(F)F)nn2C)ccn1` [Compound I-429a], < 250 nM; to `COc1cc(C(=O)N[C@@H]2CCn3nc(-c4cc(C(F)(F)F)ncc4F)cc32)ccn1` [Compound I-485b], < 250 nM. The same measure for `O=C(N[C@H]1CCn2nc(-c3cc(C(F)(F)F)ncc3F)cc21)c1ccnc(OC(F)F)c1` [Compound I-547a, (S)-2-(Difluoromethoxy)-N-(2-(5-fluoro-2-(trifluoromethyl)pyridin-4-yl)-5,6-dihydro-4H-pyrrolo[1,2-b]pyrazol-4-yl)isonicotinamide]: < 250 nM. As to `COc1cc(-c2nc3c(o2)CCC[C@@H]3NC(=O)c2cccc(C(F)(F)F)c2)ccn1` [Compound I-249a, (S)-N-(2-(2-Methoxypyridin-4-yl)-4,5,6,7-tetrahydrobenzo[d]oxazol-4-yl)-3-(trifluoromethyl)benzamide], the IC50 was < 250 nM. The same measure for `Cc1c(-c2ccnc(C(F)(F)F)c2)nn2c1[C@H](NC(=O)c1cc(C(F)(F)F)nn1C)CCC2` [Compound I-353b]: 500 to 1000 nM; for `Cn1nc(C(F)(F)F)cc1C(=O)N[C@H]1CCCn2nc(-c3ccnc(OC(F)(F)F)c3)cc21` [Compound I-391a]: < 250 nM. Take `Cc1cc(C(=O)N[C@H]2CCCn3nc(-c4ccnc(C(F)(F)F)c4)cc32)n(C(F)F)n1` [Compound I-426a]: the 50% inhibitory concentration (IC50) was < 250 nM. The same measure for `CC12CC(C(=O)N[C@H]3CCn4nc(-c5cc(C(F)(F)F)ncc5F)cc43)(C1)C2` [Compound I-524a, (S)-N-(2-(5-Fluoro-2-(trifluoromethyl)pyridin-4-yl)-5,6-dihydro-4H-pyrrolo[1,2-b]pyrazol-4-yl)-3-methylbicyclo[1.1.1]pentane-1-carboxamide]: < 250 nM; for `Cn1nc(C(F)(F)F)cc1C(=O)N[C@H]1CCCCn2nc(-c3ccnc(C(F)(F)F)c3)nc21` (single isomer, unassigned) [I-272*]: < 250 nM; for `Cc1nc(C(F)(F)F)oc1C(=O)N[C@H]1CCCn2nc(-c3ccnc(C(F)(F)F)c3)nc21` [Compound I-216a, (S)-4-Methyl-2-(trifluoromethyl)-N-(2-(2-(trifluoromethyl)pyridin-4-yl)-5,6,7,8-tetrahydro-[1,2,4]triazolo[1,5-a]pyridin-8-yl)oxazole-5-carboxamide]: < 250 nM. The same measure for `O=C(N[C@H]1CCCc2cnc(-c3ccnc(C(F)(F)F)c3)cc21)c1cncc(C(F)(F)F)n1` (single isomer, unassigned) [I-270*]: > 1000 nM. The same measure for `Cc1ccc(C(=O)N[C@@H]2CCc3nn(-c4ccnc(C(F)(F)F)c4)cc32)c(C)c1` [Compound I-93b]: > 1000 nM. Regarding `Cn1nc(C(F)(F)F)cc1C(=O)N[C@H]1CCCc2nc(-c3cc(C4CC4)ncc3F)oc21` [Compound I-166a, (S)—N-(2-(2-Cyclopropyl-5-fluoropyridin-4-yl)-4,5,6,7-tetrahydrobenzo[d]oxazol-7-yl)-1-methyl-3-(trifluoromethyl)-1H-pyrazole-5-carboxamide], the IC50 was < 250 nM.

In the case of `COc1cc(-c2nc3n(n2)CCC[C@H]3NC(=O)c2cc(C(F)(F)F)nn2C)ccn1` [Compound I-474b], the IC50 is > 1000 nM. To `N#Cc1cccc(C(=O)N[C@H]2CCCCc3oc(-c4ccnc(C(F)(F)F)c4)nc32)c1` [Compound I-160a, (S)-3-cyano-N-(2-(2-(trifluoromethyl)pyridin-4-yl)-5,6,7,8-tetrahydro-4H-cyclohepta[d]oxazol-4-yl)benzamide] belongs < 250 nM; to `N#Cc1cc(C(=O)N[C@H]2CCc3nn(-c4ccnc(C(F)(F)F)c4)cc32)ccc1F` [Compound I-267a, (S)-3-Cyano-4-fluoro-N-(2-(2-(trifluoromethyl)pyridin-4-yl)-2,4,5,6-tetrahydrocyclopenta[c]pyrazol-4-yl)benzamide], < 250 nM; to `O=C(N[C@H]1CCn2nc(-c3ccnc(C(F)(F)F)c3)cc21)C1CC(C(F)(F)F)C1` (stereo partly drawn) [Compound I-147a, (S)-3-(Trifluoromethyl)-N-(2-(2-(trifluoromethyl)pyridin-4-yl)-5,6-dihydro-4H-pyrrolo[1,2-b]pyrazol-4-yl)cyclobutane-1-carboxamide], < 250 nM.

Regarding `CC(F)(F)c1cc(-c2nc3c(o2)CCCC3NC(=O)c2cc(C(F)(F)F)n(C(F)F)n2)ccn1` (single isomer, unassigned) [Compound I-534], the IC50 was < 250 nM.

`O=C(N[C@H]1CCn2nc(-c3ccnc(C(F)(F)F)c3)cc21)c1cc(Cl)cc(C(F)(F)F)c1` [Compound I-451a]: the IC50 was < 250 nM. To `CC(C)(C)C(=O)N[C@@H]1CCc2nn(-c3ccnc(C(F)(F)F)c3)cc21` [Compound I-104b] belongs > 1000 nM. To `CC(F)(F)c1cc(-c2nc3c(o2)CCC[C@@H]3NC(=O)c2cncc(C(F)(F)F)c2)ccn1` [Compound I-533a, (S)—N-(2-(2-(1,1-Difluoroethyl)pyridin-4-yl)-4,5,6,7-tetrahydrobenzo[d]oxazol-4-yl)-5-(trifluoromethyl)nicotinamide] belongs < 250 nM.

For the origin of these results see patent publication US20250313548A1 (Actio Biosciences, Inc., priority 2023, published 2025).
